Test results: ChEMBL document CHEMBL5724914, “Linking interpersonal differences in gut microbiota composition and drug biotransformation activity” (2024)

Assay: (§1) The drug is tested on Z-025 corresponding to rabbit gut metagenome with ENA study accession number: PRJEB37062 and ENA sample accession number: ERS12561824 for biotransformation under anaerobic condition. The drug concentrations were measured over 9 timepoints collected between 0 and 24 hours of incubation by liquid-chromatography-coupled mass spectrometry (LC–MS)
Details: 2 µM
Further: call rule not given here.

SMILES | Bacterial Biotransformation
O=C(CCCN1CCC2(CC1)C(=O)NCN2c1ccccc1)c1ccc(F)cc1 [SPIPERONE] | Compound NOT metabolized
O=C1C(CC[S+]([O-])c2ccccc2)C(=O)N(c2ccccc2)N1c1ccccc1 (stereo not given) [SULFINPYRAZONE] | Compound NOT metabolized

Assay: as §1, with “Z-023” for “Z-025”, “to” for “to rabbit gut”, “ERS12561822” for “ERS12561824”
Details: 2 µM

SMILES | Bacterial Biotransformation
O=C(CCCN1CCC2(CC1)C(=O)NCN2c1ccccc1)c1ccc(F)cc1 [SPIPERONE] | Compound metabolized
O=C1C(CC[S+]([O-])c2ccccc2)C(=O)N(c2ccccc2)N1c1ccccc1 (stereo not given) [SULFINPYRAZONE] | Compound metabolized

Assay: as §1, with “Z-022” for “Z-025”, “mouse” for “rabbit”, “ERS12561821” for “ERS12561824”
Details: 2 µM

SMILES | Bacterial Biotransformation
O=C(CCCN1CCC2(CC1)C(=O)NCN2c1ccccc1)c1ccc(F)cc1 [SPIPERONE] | Compound NOT metabolized
O=C1C(CC[S+]([O-])c2ccccc2)C(=O)N(c2ccccc2)N1c1ccccc1 (stereo not given) [SULFINPYRAZONE] | Compound NOT metabolized

Assay: as §1, with “Z-013” for “Z-025”, “ERS12561813” for “ERS12561824”
Details: 2 µM

SMILES | Bacterial Biotransformation
O=C(CCCN1CCC2(CC1)C(=O)NCN2c1ccccc1)c1ccc(F)cc1 [SPIPERONE] | Compound NOT metabolized
O=C1C(CC[S+]([O-])c2ccccc2)C(=O)N(c2ccccc2)N1c1ccccc1 (stereo not given) [SULFINPYRAZONE] | Compound NOT metabolized

Assay: as §1, with “Z-009” for “Z-025”, “pig” for “rabbit”, “ERS12561809” for “ERS12561824”
Details: 2 µM

SMILES | Bacterial Biotransformation
O=C(CCCN1CCC2(CC1)C(=O)NCN2c1ccccc1)c1ccc(F)cc1 [SPIPERONE] | Compound metabolized
O=C1C(CC[S+]([O-])c2ccccc2)C(=O)N(c2ccccc2)N1c1ccccc1 (stereo not given) [SULFINPYRAZONE] | Compound metabolized

Assay: as §1, with “Z-007” for “Z-025”, “rat” for “rabbit”, “ERS12561807” for “ERS12561824”
Details: 2 µM

SMILES | Bacterial Biotransformation
O=C(CCCN1CCC2(CC1)C(=O)NCN2c1ccccc1)c1ccc(F)cc1 [SPIPERONE] | Compound NOT metabolized
O=C1C(CC[S+]([O-])c2ccccc2)C(=O)N(c2ccccc2)N1c1ccccc1 (stereo not given) [SULFINPYRAZONE] | Compound NOT metabolized

Assay: as §1, with “Z-006” for “Z-025”, “mouse” for “rabbit”, “ERS12561806” for “ERS12561824”
Details: 2 µM

SMILES | Bacterial Biotransformation
O=C(CCCN1CCC2(CC1)C(=O)NCN2c1ccccc1)c1ccc(F)cc1 [SPIPERONE] | Compound NOT metabolized
O=C1C(CC[S+]([O-])c2ccccc2)C(=O)N(c2ccccc2)N1c1ccccc1 (stereo not given) [SULFINPYRAZONE] | Compound NOT metabolized

Assay: as §1, with “Z-004” for “Z-025”, “to” for “to rabbit gut”, “ERS12561804” for “ERS12561824”
Details: 2 µM

SMILES | Bacterial Biotransformation
O=C(CCCN1CCC2(CC1)C(=O)NCN2c1ccccc1)c1ccc(F)cc1 [SPIPERONE] | Compound NOT metabolized
O=C1C(CC[S+]([O-])c2ccccc2)C(=O)N(c2ccccc2)N1c1ccccc1 (stereo not given) [SULFINPYRAZONE] | Compound NOT metabolized

Assay: as §1, with “WLS-350” for “Z-025”, “human” for “rabbit”, “ERS12561789” for “ERS12561824”
Details: 2 µM

SMILES | Bacterial Biotransformation
O=C(CCCN1CCC2(CC1)C(=O)NCN2c1ccccc1)c1ccc(F)cc1 [SPIPERONE] | Compound NOT metabolized
O=C1C(CC[S+]([O-])c2ccccc2)C(=O)N(c2ccccc2)N1c1ccccc1 (stereo not given) [SULFINPYRAZONE] | Compound metabolized

Assay: as §1, with “WLS-073” for “Z-025”, “human” for “rabbit”, “ERS12561749” for “ERS12561824”
Details: 2 µM

SMILES | Bacterial Biotransformation
O=C(CCCN1CCC2(CC1)C(=O)NCN2c1ccccc1)c1ccc(F)cc1 [SPIPERONE] | Compound NOT metabolized
O=C1C(CC[S+]([O-])c2ccccc2)C(=O)N(c2ccccc2)N1c1ccccc1 (stereo not given) [SULFINPYRAZONE] | Compound metabolized

Assay: as §1, with “WLS-052” for “Z-025”, “human” for “rabbit”, “ERS12561747” for “ERS12561824”
Details: 2 µM

SMILES | Bacterial Biotransformation
O=C(CCCN1CCC2(CC1)C(=O)NCN2c1ccccc1)c1ccc(F)cc1 [SPIPERONE] | Compound NOT metabolized
O=C1C(CC[S+]([O-])c2ccccc2)C(=O)N(c2ccccc2)N1c1ccccc1 (stereo not given) [SULFINPYRAZONE] | Compound metabolized

Assay: as §1, with “WLS-010” for “Z-025”, “human” for “rabbit”, “ERS12561743” for “ERS12561824”
Details: 2 µM

SMILES | Bacterial Biotransformation
O=C(CCCN1CCC2(CC1)C(=O)NCN2c1ccccc1)c1ccc(F)cc1 [SPIPERONE] | Compound NOT metabolized
O=C1C(CC[S+]([O-])c2ccccc2)C(=O)N(c2ccccc2)N1c1ccccc1 (stereo not given) [SULFINPYRAZONE] | Compound metabolized

Details: human gut metagenome, 24 h, 2 µM

SMILES | Bacterial Biotransformation
O=C(CCCN1CCC2(CC1)C(=O)NCN2c1ccccc1)c1ccc(F)cc1 [SPIPERONE] | Compound NOT metabolized
O=C1C(CC[S+]([O-])c2ccccc2)C(=O)N(c2ccccc2)N1c1ccccc1 (stereo not given) [SULFINPYRAZONE] | Compound metabolized

Details: human gut metagenome, 24 h, 2 µM
Remark: another data set of the same source

SMILES | Bacterial Biotransformation
O=C(CCCN1CCC2(CC1)C(=O)NCN2c1ccccc1)c1ccc(F)cc1 [SPIPERONE] | Compound NOT metabolized
O=C1C(CC[S+]([O-])c2ccccc2)C(=O)N(c2ccccc2)N1c1ccccc1 (stereo not given) [SULFINPYRAZONE] | Compound metabolized

Details: human gut metagenome, 24 h, 2 µM
Remark: another data set of the same source

SMILES | Bacterial Biotransformation
O=C(CCCN1CCC2(CC1)C(=O)NCN2c1ccccc1)c1ccc(F)cc1 [SPIPERONE] | Compound metabolized
O=C1C(CC[S+]([O-])c2ccccc2)C(=O)N(c2ccccc2)N1c1ccccc1 (stereo not given) [SULFINPYRAZONE] | Compound metabolized

Details: human gut metagenome, 24 h, 2 µM
Remark: another data set of the same source

SMILES | Bacterial Biotransformation
O=C(CCCN1CCC2(CC1)C(=O)NCN2c1ccccc1)c1ccc(F)cc1 [SPIPERONE] | Compound NOT metabolized
O=C1C(CC[S+]([O-])c2ccccc2)C(=O)N(c2ccccc2)N1c1ccccc1 (stereo not given) [SULFINPYRAZONE] | Compound metabolized

Details: human gut metagenome, 24 h, 2 µM
Remark: another data set of the same source

SMILES | Bacterial Biotransformation
O=C(CCCN1CCC2(CC1)C(=O)NCN2c1ccccc1)c1ccc(F)cc1 [SPIPERONE] | Compound metabolized
O=C1C(CC[S+]([O-])c2ccccc2)C(=O)N(c2ccccc2)N1c1ccccc1 (stereo not given) [SULFINPYRAZONE] | Compound metabolized

Details: human gut metagenome, 24 h, 2 µM
Remark: another data set of the same source

SMILES | Bacterial Biotransformation
O=C(CCCN1CCC2(CC1)C(=O)NCN2c1ccccc1)c1ccc(F)cc1 [SPIPERONE] | Compound NOT metabolized
O=C1C(CC[S+]([O-])c2ccccc2)C(=O)N(c2ccccc2)N1c1ccccc1 (stereo not given) [SULFINPYRAZONE] | Compound metabolized

Details: human gut metagenome, 24 h, 2 µM
Remark: another data set of the same source

SMILES | Bacterial Biotransformation
O=C(CCCN1CCC2(CC1)C(=O)NCN2c1ccccc1)c1ccc(F)cc1 [SPIPERONE] | Compound NOT metabolized
O=C1C(CC[S+]([O-])c2ccccc2)C(=O)N(c2ccccc2)N1c1ccccc1 (stereo not given) [SULFINPYRAZONE] | Compound metabolized

Details: human gut metagenome, 24 h, 2 µM
Remark: another data set of the same source

SMILES | Bacterial Biotransformation
O=C(CCCN1CCC2(CC1)C(=O)NCN2c1ccccc1)c1ccc(F)cc1 [SPIPERONE] | Compound metabolized
O=C1C(CC[S+]([O-])c2ccccc2)C(=O)N(c2ccccc2)N1c1ccccc1 (stereo not given) [SULFINPYRAZONE] | Compound metabolized
